Measured values: patent publication US20220340908A1, “METHODS FOR DEPLETION OF DELETERIOUS MITOCHONDRIAL GENOMES” (University of Massachusetts, priority 2019, published 2022)
Residues, ends and D or L forms follow the SMILES beside them. *: point of attachment. Cbz = O=C(OCc1ccccc1)*

Assays:
KSS cybrid cells = experiment: KSS ΔmtDNA quantification by qPCR in KSS heteroplasmic cybrid cells; format: cell-based, human; conditions: for KSS ΔmtDNA percentage: 4 weeks, from ˜50%
Description: For human patient fibroblast cell lines, wild-type and ΔKSS primers were used to detect wild-type mtDNA or ΔKSS mtDNA. Primers that amplify a sequence within the B2M ([…]) gene were used as an internal control for normalization. Absolute quantification was also performed to determine the percentage or ratio of KSS ΔmtDNA relative to total mtDNA (KSS ΔmtDNA and wild-type mtDNA) as previously described (11). Primers that specifically amplify wild-type or ΔmtDNA are listed in Table A. Standard curves for each qPCR primer set were generated using purified plasmids individually containing approximately 1 kb of the mtDNA fragments specific for each primer set. A Student's t-test was employed to determine the level of statistical significance.
(§1) The KSS cell line was a gift from Carlos Moraes (29, 30). The CoxI […] cell line was a gift from Giovanni Manfredi (28). Cells were cultured in DMEM (4 mM L-glutamine, 4.5 g/L glucose; Gibco, Thermo Fisher Scientific) plus 10% FBS with 1% pen-strep. Total cellular mtDNA was prepared as described (40). Cells were incubated continuously in the described concentration of CDDO for the indicated number of days. The cells were sub-cultured prior to confluence every 48 hours.
Cells were grown on 6-well plates and siRNAs were transfected with Lipofectamine RNAiMAX (Thermo Fisher Scientific) following the manufacturer's instructions. Human LONP1 RNAi was used in knockdown experiment (Dharmacon L-003979-00-0005) (e.g., a pool comprising GGAAAUCGGCCUACAAGAU (SEQ ID NO:1), GCGCAUGUAUGACGUGACA (SEQ ID NO:2), CGAGAGUACUUCCGCUUCA (SEQ ID NO:3), and GAAGAGACCAAUAUUCCUA (SEQ ID NO:4)).
ATF5 shRNA knockdown lentiviral constructs were generated using psp-108 vector (Addgene), and viruses were produced by co-transfection along with plasmids pMD2.G (Addgene) and psPAX2 (Addgene) into HEK293T cells. All viral titers were predetermined, and same number of viral particles was used for experimental and control samples. KSS cells were infected with lentiviruses, selected with puromycin for 5-7 days, and re-plated for proliferation. ATFS knockdown targeting sequences are: shRNA-1, 5′-[…]-3′ (SEQ ID NO:5); shRNA-2, 5′-[…]-3′ (SEQ ID NO:6); shRNA-3, 5′-[…]-3′ (SEQ ID NO:7); see horizondiscovery.com/en/products/gene-modulation/knockdown-reagents/shrna/PIFs/TRC-Lentiviral-shRNA?nodeid=entrezgene-22809#specifications.

KSS ΔmtDNA cells = experiment: Cell viability (trypan blue), KSS cells; format: cell-based, human; conditions: 0.1 μM and 0.25 μM CDDO, 72 hours
Description: as §1
(§2) At the indicated time points, cells were stained with trypan blue (41) and quantified with an automated cell counter TC-20™ (Bio-Rad). The results are an average of three independent assays.

CoxI G6930A cells [1] = experiment: Respiration assay, oxygen consumption rate (Seahorse), CoxI G6930A cells; format: cell-based, human
Description: (§3) For mitochondrial respiration assays, oxygen consumption rate (OCR) was measured using a Seahorse Extracellular Flux Analyzer XFe96 (Seahorse Biosciences) as described (40). 14,000 cells were seeded per well and OCR was measured using the Cell MitoStress Kit (as described by the manufacture). 180 μl of XF-Media was added to each well and then the plates were subjected to analysis following sequential introduction of 1.5 μM oligomycin, 1.5 μM FCCP and 0.5 μM rotenone/antimycin as indicated. Data is normalized to total protein as determined by the BCA protein assay.

KSS heteroplasmic cells = experiment: Respiration assay, oxygen consumption rate (Seahorse), KSS cells; format: cell-based, human; conditions: 0.1 μM or 0.25 μM, 4 weeks
Description: as §3

CoxI G6930A cybrid cells = experiment: Percentage of CoxI G6930A mtDNA by deep sequencing in cybrid cells; format: cell-based, human; conditions: for CoxI G6930A mtDNA percentage: 3 weeks, from 86%; for CoxI G6930A mtDNA heteroplasmic ratio: 18.5 weeks continuous, from ˜90%
Description: Library construction for deep sequencing was modified from our previous report (7). Following CDDO treatment, cells were harvested at different time points and genomic DNA extracted. Briefly, regions flanking the CoxI […] site were PCR amplified using locus-specific primers bearing tails complementary to the Truseq adapters as described previously (38). 50-100 ng input genomic DNA (mtDNA included) was PCR amplified with Phusion High Fidelity DNA Polymerase (New England Biolabs):(98° C., 15 s; 67° C. 25 s; 72° C. 18 s)×30 cycles. 1 μl of each PCR reaction was amplified with barcoded primers to reconstitute the TruSeq adaptors using the Phusion High Fidelity DNA Polymerase (New England Biolabs): (98° C., 15 s; 61° C., 25 s; 72° C., 18 s)×9 cycles. Equal amounts of the products were pooled and gel purified. The purified library was deep sequenced using a paired-end 150 bp Illumina MiSeq run.
MiSeq data analysis for editing at target sites or off-target sites was performed using a suite of Unix-based-software tools. First, the quality of the paired-end sequencing reads (R1 and R2 fastq files) was assessed using FastQC (bioinformatics.babraham.ac.uk/projects/fastqc/). Raw paired-end reads were combined using paired end read merger (PEAR) (39) to generate single merged high-quality full-length reads. Reads were then filtered by quality (using Filter FASTQC (38)) to remove those with a mean PHRED quality score under 30 and a minimum per base score under 24. Each group of reads was then aligned to a corresponding reference sequence using BWA (version 0.7.5) and SAMtools (version 0.1.19). To determine background SNP or sequencing errors, all reads from each negative control replicate were combined and aligned, as described above. Background SNP types and frequencies were then cataloged in a text output format at each base using bam-readcount (github.com/genome/bam-readcount). For each drug treatment group, the average background SNP frequencies (based on SNP type, position and frequency) of the triplicate negative control group were subtracted to obtain the accurate SNP frequencies.
as §1

CoxI G6930A cells [2] = experiment: Cell viability (trypan blue), CoxI G6930A cells; format: cell-based, human; conditions: 0.1 μM and 0.25 μM CDDO, 72 hours
Description: as §1, §2

[3] = 20 mg for 56 consecutive days; cited from earlier work
LONP1 protease = target: T1, LONP1 protease (Homo sapiens, UniProt P36776); conditions: cited from earlier work
T1 sequence (P36776 68-959): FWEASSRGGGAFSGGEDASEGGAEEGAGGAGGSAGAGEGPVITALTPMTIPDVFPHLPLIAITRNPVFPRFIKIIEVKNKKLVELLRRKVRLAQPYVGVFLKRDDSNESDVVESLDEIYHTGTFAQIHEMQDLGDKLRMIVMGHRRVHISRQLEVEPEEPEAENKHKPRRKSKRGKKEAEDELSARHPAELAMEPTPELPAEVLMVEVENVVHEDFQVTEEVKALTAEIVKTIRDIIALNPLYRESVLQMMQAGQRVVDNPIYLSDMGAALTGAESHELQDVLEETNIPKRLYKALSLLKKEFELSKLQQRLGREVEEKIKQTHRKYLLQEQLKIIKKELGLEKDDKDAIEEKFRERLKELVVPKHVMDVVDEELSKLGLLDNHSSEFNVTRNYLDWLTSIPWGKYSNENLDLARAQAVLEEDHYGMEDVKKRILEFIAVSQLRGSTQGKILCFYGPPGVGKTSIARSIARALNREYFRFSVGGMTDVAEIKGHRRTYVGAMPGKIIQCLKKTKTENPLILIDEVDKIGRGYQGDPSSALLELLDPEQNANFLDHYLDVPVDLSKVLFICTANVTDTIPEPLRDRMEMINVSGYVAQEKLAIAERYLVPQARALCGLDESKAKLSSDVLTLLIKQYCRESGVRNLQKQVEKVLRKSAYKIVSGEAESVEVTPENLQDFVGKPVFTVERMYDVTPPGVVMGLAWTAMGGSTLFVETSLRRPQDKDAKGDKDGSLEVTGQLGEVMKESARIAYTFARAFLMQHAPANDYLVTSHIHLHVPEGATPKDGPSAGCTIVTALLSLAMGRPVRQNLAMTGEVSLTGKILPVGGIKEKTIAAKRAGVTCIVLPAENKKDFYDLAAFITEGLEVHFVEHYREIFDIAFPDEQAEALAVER

CC1(C)CC[C@]2(C(=O)O)CC[C@]3(C)[C@H](C(=O)C=C4[C@@]5(C)C=C(C#N)C(=O)C(C)(C)[C@@H]5CC[C@]43C)[C@@H]2C1 [CDDO, 2-cyano-3,12-dioxo-oleana-1,9(11)-dien-28-oic acid]
KSS ΔmtDNA percentage (KSS cybrid cells; 0.1 μM): 19.6% | KSS ΔmtDNA percentage (KSS cybrid cells; 0.25 μM): 21.2% | viability of KSS cell line (KSS ΔmtDNA cells): neither concentration affected viability | improvement of basal oxygen consumption (CoxI G6930A cells [1]; 0.1 μM, 3 weeks): ~2 fold | improvement of basal oxygen consumption (CoxI G6930A cells [1]; 18.5 weeks exposure): over 3 fold | maximal respiratory capacity (CoxI G6930A cells [1]; CDDO time course, 0.1 μM or 0.25 μM): increased | increase in basal oxygen consumption (KSS heteroplasmic cells): ~2 fold | CoxI G6930A mtDNA percentage (CoxI G6930A cybrid cells; 0.1 μM): 68% | CoxI G6930A mtDNA heteroplasmic ratio (CoxI G6930A cybrid cells; 0.1 μM): ~47% | CoxI G6930A mtDNA percentage (CoxI G6930A cybrid cells; 0.25 μM): 72% | CoxI G6930A mtDNA heteroplasmic ratio (CoxI G6930A cybrid cells; 0.25 μM): 62% | viability of CoxI G6930A cell line (CoxI G6930A cells [2]): neither concentration affected viability | tolerability [3]: well tolerated

CC(C)C[C@@H](C=O)NC(=O)[C@H](CC(C)C)NC(=O)[C@H](CC(C)C)NC(=O)OCc1ccccc1 [MG132, carbobenzoxy-Leu-Leu-leucinal] (Cbz-Leu-Leu-Leu-aldehyde)
inhibition of LONP1 protease (LONP1 protease): potent inhibitors

C=C1OC(=O)/C(=C\CCCCCCCCCCCCC)[C@@H]1O [Obtusilactone A]
inhibition of LONP1 protease (LONP1 protease): inhibitors of LONP1 protease

O=c1n(CCCN2CCN(c3cccc(Cl)c3)CC2)nc2ccccn12 [Trazadone]
heteroplasmy (ΔmtDNA) in KSS cells (KSS cybrid cells; shRNA lentivirus or multiple concentrations of drug, FIG. 11): improved heteroplasmy

(-)-sesamin
inhibition of LONP1 protease (LONP1 protease): inhibitors of LONP1 protease

Z-Leu-Leu-Leu-B(OH)2 [MG262]
inhibition of LONP1 protease (LONP1 protease): potent inhibitors

B1: LONP1 siRNA: Dharmacon L-003979-00-0005, siRNA pool comprising SEQ ID NO:1-4 against human LONP1 (nucleic acid)
chain 1: GGAAAUCGGCCUACAAGAU
chain 2: GCGCAUGUAUGACGUGACA
chain 3: CGAGAGUACUUCCGCUUCA
chain 4: GAAGAGACCAAUAUUCCUA
modifications: siRNA pool, further chemistry not given here
decrease of ΔmtDNAs (KSS cybrid cells; siRNA for 4 days, KSS cybrid line): 2.7 fold | heteroplasmy ratio (% KSS mtDNA) (KSS cybrid cells; siRNA for 4 days, from 56.9%): 27.6%
